By LD50 is commonly meant the dose at which mortality reaches 50%. High values mean a less toxic substance, low ones a more toxic substance.

SMILES strings stand for the structures.

The nature of series [1]: 50% lethal dose (LD50) by intravenous injection to mice. The settings on record: mouse, in vivo. An excerpt:
The toxicity of the 5,7-dihydroxytetrahydroisoquinoline derivative (I) of the present invention is considerably low.

Series [2] concerns serotonin-creatinin sulfate-induced bronchoconstriction. Put plainly: Preventive effects against serotonin-creatinin sulfate-induced bronchoconstriction (bronchodilating activity) in anesthetized cats. The series is classed as in vivo. The settings on record: for Preventive effects against bronchoconstriction: cats, 10 μg/kg, duodenum. An excerpt:
The 5,7-dihydroxy-tetrahydroisoquinoline derivative (I) of the present invention or a pharmaceutically acceptable acid addition salt thereof has potent bronchodilating activity and is useful as a bronchodilator. Moreover, as compared with 6,7-dihydroxy-1-(3,4,5-trimethoxybenzyl)-1,2,3,4-tetrahydroisoquinoline, the 5,7-dihydroxy-tetrahydroisoquinoline derivative (I) of the present invention is more useful because of the longer duration of its point bronchodilating activity and/or lesser side effects (e.g., lesser increase of the heart rate). […] However, the bronchodilating activity of the former lasts for more than 3.5 hours at its maximum level, whereas the latter decreases to about 1/3 the maximum level after 3.5 hours.
(§1) Cats were anesthetized with sodium pentobarbital (40 mg/.kg, i.p.). Under artificial respiration (13 - 15 ml of air/kg/stroke, 30 strokes/minute) thereof, the cats were immobilized by intraveous injection of gallamine triethyodide (8 mg/kg). Serotonin.creatinin sulfate (=bronchoconstrictor) was injected intravenously to the cats at the dose of 20 μg/kg, and the intratracheal pressure was measured by means of a pressure transducer. Then, each one of test compounds was administered to the duodenum of the cats at the dose of 10 μg/kg, and the intratracheal pressure and the heart rate were measured with the passage of time. The bronchodilating activity was estimated by the preventive effects (%) of each test compound against bronchoconstriction.

In a further series the test system is heart rate. The experiment in a line: Increase of heart rate after duodenal administration in anesthetized cats. The format is in vivo. The settings on record: 10 μg/kg, duodenum. As for the experimental part:
as §1

[3] abbreviates: 15 minutes after administration.
The mark [4] stands for this setting: 30 minutes after administration.
Setting [5] is: 45 minutes after administration.
Where [6] appears, read: 60 minutes after administration.
Where [7] appears, read: 75 minutes after administration.
[8] abbreviates: 90 minutes after administration.
The mark [9] stands for this setting: 120 minutes after administration.
[10] abbreviates: 150 minutes after administration.
The mark [11] stands for this setting: 180 minutes after administration.
[12] abbreviates: 210 minutes after administration.

Consider `COc1cc(CC2NCCc3c(O)cc(O)cc32)cc(OC)c1OC.Cl` (stereo not shown) [A, 5,7-dihydroxy-1-(3,4,5-trimethoxybenzyl)-1,2,3,4-tetrahydroisoquinoline hydrochloride], for which the LD50 in series [1] is around 51 mg/kg. Moreover, the “Preventive effects against bronchoconstriction” value in series [2] (5 minutes after administration) is listed as 8.5 ± 3.2%; in series [2] (setting [3]) it was 47.9 ± 8.5%; in series [2] (setting [4]) it was 63.5 ± 9.9%; in series [2] (setting [5]), 69.7 ± 8.7%; in series [2] (setting [6]), 71.1 ± 7.1%; in series [2] (setting [7]) it was 70.7 ± 6.8%. Besides, the “Preventive effects against bronchoconstriction” value in series [2] (setting [8]) was 72.5 ± 6.1%; in series [2] (setting [9]), 71.0 ± 5.6%; in series [2] (setting [10]), 70.2 ± 6.4%; in series [2] (setting [11]), 69.1 ± 5.7%; in series [2] (setting [12]), 64.6 ± 7.4%. The “Duration of bronchodilating activity at its maximum level” value in series [2] (after duodenal administration) is recorded as “more than 3.5 hours”. In addition, the “Maximum preventive effects compared with 6,7-dihydroxy-1-(3,4,5-trimethoxybenzyl)-1,2,3,4-tetrahydroisoquinoline (hydrochloride)” value in series [2] (duodenal administration) was “almost the same maximum preventive effects”. The “Increase of heart rate (Number of heart beats increased/minute)” value is given as 1.3 ± 0.3 heart beats increased/minute with heart rate (5 minutes after administration); 10.6 ± 3.4 heart beats increased/minute with heart rate (setting [3]); 22.2 ± 6.5 heart beats increased/minute in the series on heart rate (setting [4]); 21.3 ± 5.2 heart beats increased/minute with heart rate (setting [5]); 20.0 ± 4.4 heart beats increased/minute with heart rate (setting [6]); 18.7 ± 3.8 heart beats increased/minute in the series with heart rate (setting [7]). The “Increase of heart rate (Number of heart beats increased/minute)” value with heart rate (setting [8]) is 17.8 ± 3.0 heart beats increased/minute; in the series with heart rate (setting [9]), 17.2 ± 2.3 heart beats increased/minute; with heart rate (setting [10]), 15.2 ± 2.1 heart beats increased/minute; in the series with heart rate (setting [11]), 13.7 ± 1.4 heart beats increased/minute; in the series with heart rate (setting [12]), 12.0 ± 1.4 heart beats increased/minute.

For `COc1cc(CC2NCCc3cc(O)c(O)cc32)cc(OC)c1OC.Cl` (stereo not shown) [B, 6,7-dihydroxy-1-(3,4,5-trimethoxybenzyl)-1,2,3,4-tetrahydroisoquinolin hydrochloride, reference compound], the “Preventive effects against bronchoconstriction” value was found to be 21.1 ± 8.6% in series [2] (5 minutes after administration); 71.2 ± 7.6% in series [2] (setting [3]); 77.6 ± 5.2% in series [2] (setting [4]); 73.9 ± 2.6% in series [2] (setting [5]); 67.2 ± 3.4% in series [2] (setting [6]); 62.3 ± 5.1% in series [2] (setting [7]). For the same molecule, the “Preventive effects against bronchoconstriction” value was determined as 54.7 ± 6.0% in series [2] (setting [8]); 45.5 ± 7.5% in series [2] (setting [9]); 38.0 ± 8.7% in series [2] (setting [10]); 31.6 ± 9.5% in series [2] (setting [11]); 26.0 ± 7.4% in series [2] (setting [12]). For the same molecule, the “Bronchodilating activity remaining after 3.5 hours, as fraction of the maximum level” value in series [2] (after 3.5 hours, duodenal administration) is recorded as “about 1/3”.

(Values after patent publication US4054659A, “5,7 Dihydroxy-1-(trimethoxybenzyl)-1,2,3,H-tetrahydroisoquinolines and use thereof” (Tanabe Seiyaku Co., Ltd., priority 1974, dated 1977).)
